Format in all cases: functional, cell-based
In one test the test system is RPMI-8226. As to the kind of experiment: Antiproliferative activity against human RPMI-8226 cells assessed as inhibition of cell proliferation incubated for 72 hrs by XTT assay. The following applies: RPMI-8226, 72 h. For orientation: Tetrazolium assays rely on reduction of a dye to a coloured formazan, in cell work by metabolically active cells.
Test [1] in a line: Antiproliferative activity against human MM1.R cells assessed as inhibition of cell proliferation incubated for 72 hrs by XTT assay. The following applies: MM.1R.
The subject of another test is MM1.S. As to the kind of experiment: Antiproliferative activity against human MM1.S cells assessed as inhibition of cell proliferation incubated for 72 hrs by XTT assay.

These results are taken from ChEMBL document CHEMBL5215011, “Isolation and Structure Elucidation of Compounds from Sesamum alatum and Their Antiproliferative Activity against Multiple Myeloma Cells” (J Nat Prod, 2022).

As usually defined, the IC50 is the concentration that gives 50% inhibition. As to `CC(C)C[C@H](NC(=O)[C@H](Cc1ccccc1)NC(=O)c1cnccn1)B(O)O` [BORTEZOMIB], the IC50 in the test on RPMI-8226 is 0.0056 µM; in test [1], 0.0047 µM; in the test with MM1.S it was 0.0032 µM.
For the compound `CC(C)=CC[C@@H]1C(=O)c2c(O)ccc(O)c2[C@@H]1O`, in the test with RPMI-8226, the 50% inhibitory concentration (IC50) is 27.5 µM.
Same read-out and setting: next, `CC(C)=CCC1=C(Cl)C(=O)c2c(O)ccc(O)c2C1=O`: 12.9 µM.
Regarding `CC(C)=CC[C@@]12O[C@@H]1C(=O)c1c(O)ccc(O)c1C2=O`, the IC50 came to 0.6 µM in the test with RPMI-8226, 0.9 µM in test [1] and 0.7 µM in the test with MM1.S.
For `CC(C)=CC[C@@]12O[C@@H]1C(=O)c1c(O)ccc(O[C@@H]3O[C@H](CO)[C@@H](O)[C@H](O)[C@H]3O)c1C2=O` the same measures were 9.5 µM, 3.6 µM and 4.8 µM.
For `CC(C)=CC[C@@]12O[C@@H]1C(O)c1c(O)ccc(O)c1C2=O` (stereo partly drawn), the IC50 with RPMI-8226 was 18.6 µM.
For `COC1=CC(=O)C=C(OC)C1=O` [2,6-DIMETHOXYQUINONE], the half-inhibitory concentration (IC50) in the test with RPMI-8226 was 10.8 µM; in test [1], 3 µM; in the test with MM1.S, 1.1 µM.
`CC(C)(O)/C=C\C(O)=C1C(=O)c2c(O)ccc(O)c2C1=O`: the IC50 with RPMI-8226 is 9.6 µM; in test [1] it was 6.1 µM; in the test on MM1.S, 14.7 µM.
